28 molecules from patent US11912686B2 (Gilead Sciences, Inc., priority 2020, dated 2024) can be followed below.

Each structure is given as a SMILES string.

One may read the EC50 as the concentration that produces a half-maximal response.

The target of this assay is human LPAR1 (Homo sapiens (Human), UniProt Q92633). Description: LPAR1 intracellular calcium mobilization assay (antagonist mode, FLIPR). The settings on record: CHO-K1 EDG2 cells expressing human LPAR1, LPA 18:2 at EC80 (100 nM), test compound 0.5 nM to 10 μM. In kind it is cell-based. For orientation: A change in cytosolic calcium serves as a functional read-out for many receptors and channels.
Sequence of human LPAR1 (Q92633 whole entry): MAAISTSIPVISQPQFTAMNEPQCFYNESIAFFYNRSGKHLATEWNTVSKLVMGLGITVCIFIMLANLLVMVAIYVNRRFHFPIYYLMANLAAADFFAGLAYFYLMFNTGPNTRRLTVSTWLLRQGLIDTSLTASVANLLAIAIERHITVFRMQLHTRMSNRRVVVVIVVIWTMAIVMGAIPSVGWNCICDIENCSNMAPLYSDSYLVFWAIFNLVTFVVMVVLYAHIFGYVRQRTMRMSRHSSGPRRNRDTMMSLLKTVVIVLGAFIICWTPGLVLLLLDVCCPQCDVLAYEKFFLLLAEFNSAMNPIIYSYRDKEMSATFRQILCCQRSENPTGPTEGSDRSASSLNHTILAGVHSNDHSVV
As for `C[C@@H](OC(=O)Nc1c(-c2ccc(NC(=O)C3(C#N)CC3)cn2)nnn1C)c1cc(F)cnc1Cl` [Compound 168, (R)-1-(2-chloro-5-fluoropyridin-3-yl)ethyl (4-(5-(1-cyanocyclopropane-1-carboxamido)pyridin-2-yl)-1-methyl-1H-1,2,3-triazol-5-yl)carbamate], the EC50 stood at 16.2 nM.

On to `C[C@@H](OC(=O)Nc1c(-c2ccc(NC(=O)c3ccc(C#N)nc3)cn2)nnn1C)c1cccnc1Cl` [Compound 99, (R)-1-(2-chloropyridin-3-yl)ethyl (4-(5-(6-cyanonicotinamido)pyridin-2-yl)-1-methyl-1H-1,2,3-triazol-5-yl)carbamate], for which the EC50 was 53.9 nM.

With `C[C@@H](OC(=O)Nc1c(-c2ccc(NC(=O)C3CC3(C)C)cn2)nnn1C)c1cccnc1Cl` (stereo partly drawn) [Compound 49, (R)-1-(2-chloropyridin-3-yl)ethyl (4-(5-(2,2-dimethylcyclopropane-1-carboxamido)pyridin-2-yl)-1-methyl-1H-1,2,3-triazol-5-yl)carbamate], the EC50 was 353 nM.

For `C[C@@H](OC(=O)Nc1c(-c2ccc(NC(=O)C34CC(C(F)(F)F)(C3)C4)cn2)nnn1C)c1cccnc1Cl` [Compound 72, (R)-1-(2-chloroypridin-3-yl)ethyl (1-methyl-4-(5-(3-(trifluoromethyl)bicyclo[1.1.1]pentane-1-carboxamido)pyridin-2-yl)-1H-1,2,3-triazol-5-yl)carbamate], the EC50 was 17 nM.

Take `C[C@@H](OC(=O)Nc1c(-c2ccc(NC(=O)C34CC(F)(C3)C4)cn2)nnn1C)c1cc(F)cnc1F` [Compound 163, (R)-1-(2,5-difluoropyridin-3-yl)ethyl (4-(5-(3-fluorobicyclo[1.1.1]pentane-1-carboxamido)pyridin-2-yl)-1-methyl-1H-1,2,3-triazol-5-yl)carbamate]: the 50% effective concentration (EC50) came to 32.6 nM.

Regarding `C[C@@H](OC(=O)Nc1c(-c2ccc(NC(=O)N3CCC(F)(F)C3)cn2)nnn1C)c1cccnc1Cl` [Compound 193, (R)-1-(2-chloropyridin-3-yl)ethyl (4-(5-(3,3-difluoropyrrolidine-1-carboxamido)pyridin-2-yl)-1-methyl-1H-1,2,3-triazol-5-yl)carbamate], the EC50 amounted to 287 nM.

Regarding `C[C@@H](OC(=O)Nc1c(-c2ccc(NC(=O)C3(c4cccnc4)CC(F)(F)C3)cn2)nnn1C)c1cccnc1Cl` [Compound 198, (R)-1-(2-chloropyridin-3-yl)ethyl (4-(5-(3,3-difluoro-1-(pyridin-3-yl)cyclobutane-1-carboxamido)pyridin-2-yl)-1-methyl-1H-1,2,3-triazol-5-yl)carbamate], the EC50 was 613 nM.

As for `C[C@@H](OC(=O)Nc1c(-c2ccc(NC(=O)C3(C#N)CC(F)C3)cn2)nnn1C)c1cccnc1Cl` (stereo partly drawn) [Compound 132, (R)-1-(2-chloropyridin-3-yl)ethyl (4-(5-(1-cyano-3-fluorocyclobutane-1-carboxamido)pyridin-2-yl)-1-methyl-1H-1,2,3-triazol-5-yl)carbamate], the EC50 came to 197 nM.

For `C[C@@H](OC(=O)Nc1c(-c2ncc(NC(=O)c3ccc(Cl)nc3)cc2F)nnn1C)c1cc(F)cnc1F` [Compound 338, (R)-1-(2,5-difluoropyridin-3-yl)ethyl (4-(5-(6-chloronicotinamido)-3-fluoropyridin-2-yl)-1-methyl-1H-1,2,3-triazol-5-yl)carbamate], the EC50 came to 132 nM.

For `C[C@@H](OC(=O)Nc1c(-c2ccc(NC(=O)C3CC3C#N)cn2)nnn1C)c1cccnc1Cl` (stereo partly drawn) [Compound 130, (R)-1-(2-chloropyridin-3-yl)ethyl (4-(5-(2-cyanocyclopropane-1-carboxamido)pyridin-2-yl)-1-methyl-1H-1,2,3-triazol-5-yl)carbamate], the EC50 was found to be 271 nM.

For `Cc1noc(C(=O)Nc2ccc(-c3nnn(C)c3NC(=O)O[C@H](C)c3cc(F)cnc3F)nc2)c1C` [Compound 276, (R)-1-(2,5-difluoropyridin-3-yl)ethyl (4-(5-(3,4-dimethylisoxazole-5-carboxamido)pyridin-2-yl)-1-methyl-1H-1,2,3-triazol-5-yl)carbamate], the EC50 was found to be 140 nM.

For `C[C@@H](OC(=O)Nc1c(-c2ccc(NC(=O)c3ccc(C(F)(F)F)nc3)cn2)nnn1C)c1cccnc1F` [Compound 296, (R)-1-(2-fluoropyridin-3-yl)ethyl (1-methyl-4-(5-(6-(trifluoromethyl)nicotinamido)pyridin-2-yl)-1H-1,2,3-triazol-5-yl)carbamate], the EC50 was determined as 46.9 nM.

In the case of `C[C@@H](OC(=O)Nc1c(-c2ccc(NC(=O)[C@@H]3CC3(F)F)cn2)nnn1C)c1cccnc1Cl` [Compound 65, (R)-1-(2-chloropyridin-3-yl)ethyl (4-(5-((S)-2,2-difluorocyclopropane-1-carboxamido)pyridin-2-yl)-1-methyl-1H-1,2,3-triazol-5-yl)carbamate], the EC50 was determined as 81.9 nM.

`CNC(=O)Nc1ccc(-c2nnn(C)c2NC(=O)O[C@H](CF)c2cccc(F)c2)nc1` [Compound 187, (S)-2-fluoro-1-(3-fluorophenyl)ethyl (1-methyl-4-(5-(3-methylureido)pyridin-2-yl)-1H-1,2,3-triazol-5-yl)carbamate]: the EC50 amounted to 1240 nM.

On to `C[C@@H](OC(=O)Nc1c(-c2ccc(NC(=O)C3(C#N)CCC3)cn2)nnn1C)c1cccnc1Cl` [Compound 66, (R)-1-(2-chloropyridin-3-yl)ethyl (4-(5-(1-cyanocyclobutane-1-carboxamido)pyridin-2-yl)-1-methyl-1H-1,2,3-triazol-5-yl)carbamate], for which the EC50 is 66.6 nM.

Turning to `C[C@@H](OC(=O)Nc1c(-c2ccc(NC(=O)N3CCCC3)cn2)nnn1C)c1cccnc1Cl` [Compound 194, (R)-1-(2-chloropyridin-3-yl)ethyl (1-methyl-4-(5-(pyrrolidine-1-carboxamido)pyridin-2-yl)-1H-1,2,3-triazol-5-yl)carbamate], the EC50 came out at 832 nM.

For `C[C@@H](OC(=O)Nc1c(-c2ccc(NC(=O)c3ccc4ncn(C)c4c3)cn2)nnn1C)c1cc(F)cnc1F` [Compound 274, (R)-1-(2,5-difluoropyridin-3-yl)ethyl (1-methyl-4-(5-(1-methyl-1H-benzo[d]imidazole-6-carboxamido)pyridin-2-yl)-1H-1,2,3-triazol-5-yl)carbamate], the 50% effective concentration (EC50) is 403 nM.

In the case of `C[C@@H](OC(=O)Nc1c(-c2ccc(NC(=O)c3cc(F)cnc3F)cn2)nnn1C)c1cc(F)cnc1F` [Compound 241, (R)-1-(2,5-difluoropyridin-3-yl)ethyl (4-(5-(2,5-difluoronicotinamido)pyridin-2-yl)-1-methyl-1H-1,2,3-triazol-5-yl)carbamate], the EC50 worked out at 111 nM.

`C[C@@H](OC(=O)Nc1c(-c2ccc(NC(=O)c3cnc(C(F)F)nc3)cn2)nnn1C)c1cc(F)cnc1Cl` [Compound 289, (R)-1-(2-chloro-5-fluoropyridin-3-yl)ethyl (4-(5-(2-(difluoromethyl)pyrimidine-5-carboxamido)pyridin-2-yl)-1-methyl-1H-1,2,3-triazol-5-yl)carbamate]: the EC50 was 21.5 nM.

With `Cc1nc(-c2nnn(C)c2NC(=O)O[C@H](C)c2cc(F)cnc2F)ccc1NC(=O)C1(C#N)CC1` [Compound 313, (R)-1-(2,5-difluoropyridin-3-yl)ethyl (4-(5-(1-cyanocyclopropane-1-carboxamido)-6-methylpyridin-2-yl)-1-methyl-1H-1,2,3-triazol-5-yl)carbamate], the EC50 was 51.8 nM.

For `C[C@@H](OC(=O)Nc1c(-c2cnc(NC(=O)c3ccc(Cl)nc3)cn2)nnn1C)c1cc(F)cnc1F` [Compound 320, (R)-1-(2,5-difluoropyridin-3-yl)ethyl (4-(5-(6-chloronicotinamido)pyrazin-2-yl)-1-methyl-1H-1,2,3-triazol-5-yl)carbamate], the EC50 was determined as 131 nM.

Turning to `C[C@@H](OC(=O)Nc1c(-c2ccc(NC(=O)C34CC(S(C)(=O)=O)(C3)C4)cn2)nnn1C)c1cc(F)cnc1F` [Compound 215, (R)-1-(2,5-difluoropyridin-3-yl)ethyl (1-methyl-4-(5-(3-(methylsulfonyl)bicyclo[1.1.1]pentane-1-carboxamido)pyridin-2-yl)-1H-1,2,3-triazol-5-yl)carbamate], the EC50 was found to be 2000 nM.

With `CC(C#N)C(=O)Nc1ccc(-c2nnn(C)c2NC(=O)O[C@H](C)c2cccnc2Cl)nc1` (stereo partly drawn) [Compound 143, (R)-1-(2-chloropyridin-3-yl)ethyl (4-(5-(2-cyanopropanamido)pyridin-2-yl)-1-methyl-1H-1,2,3-triazol-5-yl)carbamate], the EC50 was found to be 189 nM.

Consider `C[C@@H](OC(=O)Nc1c(-c2ccc(NC(=O)C3CC(=O)C3)cn2)nnn1C)c1cccnc1Cl` [Compound 83, (R)-1-(2-chloropyridin-3-yl)ethyl (1-methyl-4-(5-(3-oxocyclobutane-1-carboxamido)pyridin-2-yl)-1H-1,2,3-triazol-5-yl)carbamate], for which the half-maximal effective concentration (EC50) stood at 344 nM.

In the case of `C[C@@H](OC(=O)Nc1c(-c2ccc(NC(=O)C34CC(F)(C3)C4)cn2)nnn1C)c1cccnc1Cl` [Compound 70, (R)-1-(2-chloropyridin-3-yl)ethyl (4-(5-(3-fluorobicyclo[1.1.1]pentane-1-carboxamido)pyridin-2-yl)-1-methyl-1H-1,2,3-triazol-5-yl)carbamate], the EC50 was 47.8 nM.

As to `C[C@@H](OC(=O)Nc1c(-c2ccc(NC(=O)C3(CN)CC(F)(F)C3)cn2)nnn1C)c1cc(F)cnc1Cl` [Compound 304, (R)-1-(2-chloro-5-fluoropyridin-3-yl)ethyl (4-(5-(1-(aminomethyl)-3,3-difluorocyclobutane-1-carboxamido)pyridin-2-yl)-1-methyl-1H-1,2,3-triazol-5-yl)carbamate], the EC50 worked out at 46.4 nM.

Take `C[C@@H](OC(=O)Nc1c(-c2ccc(NC(=O)[C@H]3C[C@H]3F)cn2)nnn1C)c1cccnc1Cl` [Compound 56, (R)-1-(2-chloropyridin-3-yl)ethyl (4-(5-((1R,2R)-2-fluorocyclopropane-1-carboxamido)pyridin-2-yl)-1-methyl-1H-1,2,3-triazol-5-yl)carbamate]: the EC50 stood at 1140 nM.

Regarding `CC(OC(=O)Nc1c(-c2ccc(NC(=O)C(F)(F)F)cn2)nnn1C)c1cc(Br)cnc1Cl` (stereo not shown) [Compound 13, 1-(5-bromo-2-chloropyridin-3-yl)ethyl (1-methyl-4-(5-(2,2,2-trifluoroacetamido)pyridin-2-yl)-1H-1,2,3-triazol-5-yl)carbamate], the EC50 was 148 nM.
